The values that follow come from patent publication US20060135494A1, “Methods of treating injuries of the nervous system associated with hemorrhage” (priority 2002, published 2006).

The test system of assay [1] is collagenase-induced intrastriatal hemorrhage (ICH). Briefly: Hematoma (hemorrhagic lesion) volume in collagenase-induced ICH rat model. In kind it is in vivo. The note with it: for Protection (%) ICH core / Protection (%) Peri-ICH: mean ± SEM. An excerpt:
All animals received humane care in compliance with the institute's guidelines as outlined in “Guide for the Care and Use of Laboratory Animals” prepared by the National Academy of Sciences and published by the National Institutes of Health (NIH publication no. 86-23, revised 1985). Female Sprague-Dawley rats (250-300 grams (g); Harlan Sprague-Dawley, Inc., Indianapolis, Ind.) were anesthesized with an intramuscular injection of a mixture of ketamine and xylazine and set in supine in a Kopf headholder. The right carotid artery, external and internal branches, was exposed and the distal end of the external carotid freed and retracted to line with the internal carotid. A PE-10 polyethylene tube (Becton-Dickinson, Sparks, Md.) was then introduced from the external into the internal carotid artery, and the former was ligated to hold the tube. TUDCA (Calbiochem-Novabiochem Corp., San Diego, Calif.) was dissolved in phosphate buffer, pH 7.4 at […] milligrams per milliliter (mg/ml). Saline or TUDCA solution (1 milliliter per kilogram body weight (ml/kg bw)) were injected directly into the internal carotid artery, within 5 minutes. Different concentrations of TUDCA (10, 50, 100, and 200 mg/kg bw) were administered 1 hour prior to, or 1, 3, and 6 hours after collagenase injection. The polyethylene tube was finally removed, the end of the external carotid artery cauterized, and the wound closed. To induce stroke injury, the animals were placed in a stereotaxic apparatus and ICH induced by collagenase infusion (Rosenberg et al., Stroke 1990;21:801-807 and Chesney et al., Stroke 1995;26:312-316). In brief, a midline incision was made through the scalp to expose the skull. […] (0.5 microliters per minute (μL/min)) of saline containing 0.5 unit (U) bacterial collagenase (type VII; Sigma Chemical Co., St. Louis, Mo.) was made stereotaxically into the striatum with a 10-μl Hamilton syringe at the following coordinates: 0.4 millimeter (mm) anterior and 3.0 mm lateral to bregma and 5.0 mm ventral to the cortical surface. Once the infusion was complete, the Hamilton syringe was left in place for 3 minutes. Body temperature was maintained at 37° C. with a CMA/150 temperature controller throughout the surgery. The rats recovered from surgery in a cage containing food and heated by an incandescent light bulb. Neurological testing was performed at 2 days after induction of ICH. The animals were then sacrificed, and the brains removed and frozen at −70° C. for either serial cryostat sectioning, or RNA and protein extraction. In a subset of animals, serum and brain samples were collected for bile acid analysis.
After behavioral testing, rats were sacrificed and the brains removed for serial cryostat sectioning. Volumes of hemorrhagic lesion, including core and peri-ICH regions, were quantitated using unbiased stereologic volumetric analysis of 20-μm cryostat sections after staining according to the Nissl protocol. Volumetric analysis was performed according to Cavalieri's method (Howard et al, Unbiased stereology: three-dimensional measurement in microscopy. New York: BIOS Scientific Publishers Ltd 1998). The areas of lesion were determined in 11 Nissl-stained sections 20 μm in thickness, 900 μm apart, from each animal. Volumes (mm^3) were calculated according to the formula V=T×a/p×ΣPi, where V=volume of interest, T=distance between sections (mm), a/p=area associated with each point (mm^2), and Pi=points hitting object in each section.

Assay [2] relates to TUNEL-positive (apoptotic) cells in hemisphere ipsilateral to ICH. In words: TUNEL staining of apoptotic cells in ICH rat brain. In kind it is in vivo. An excerpt:
All animals received humane care in compliance with the institute's guidelines as outlined in “Guide for the Care and Use of Laboratory Animals” prepared by the National Academy of Sciences and published by the National Institutes of Health (NIH publication no. 86-23, revised 1985). Female Sprague-Dawley rats (250-300 grams (g); Harlan Sprague-Dawley, Inc., Indianapolis, Ind.) were anesthesized with an intramuscular injection of a mixture of ketamine and xylazine and set in supine in a Kopf headholder. The right carotid artery, external and internal branches, was exposed and the distal end of the external carotid freed and retracted to line with the internal carotid. A PE-10 polyethylene tube (Becton-Dickinson, Sparks, Md.) was then introduced from the external into the internal carotid artery, and the former was ligated to hold the tube. TUDCA (Calbiochem-Novabiochem Corp., San Diego, Calif.) was dissolved in phosphate buffer, pH 7.4 at 400 milligrams per milliliter (mg/ml). Saline or TUDCA solution (1 milliliter per kilogram body weight (ml/kg bw)) were injected directly into the internal carotid artery, within 5 minutes. Different concentrations of TUDCA (10, 50, 100, and 200 mg/kg bw) were administered 1 hour prior to, or 1, 3, and 6 hours after collagenase injection. The polyethylene tube was finally removed, the end of the external carotid artery cauterized, and the wound closed. To induce stroke injury, the animals were placed in a stereotaxic apparatus and ICH induced by collagenase infusion (Rosenberg et al., Stroke 1990;21:801-807 and Chesney et al., Stroke 1995;26:312-316). In brief, a midline incision was made through the scalp to expose the skull. […]
At 2 days after collagenase infusion, rats were sacrificed for terminal deoxynucleotidyltransferase-mediated dUTP nick end labeling (TUNEL) of apoptotic cells. […] The number of TUNEL-positive cells was counted on a computer screen grid from at least three random fields (400×) within the region adjacent to the hemorrhagic core for each animal.

The next assay relates to collagenase-induced ICH. Briefly: Neurological testing: apomorphine-induced rotational behavior after ICH. Particulars: 2 days after ICH; vehicle approximately 20. It is filed as in vivo, rat. An excerpt: All animals received humane care in compliance with the institute's guidelines as outlined in “Guide for the Care and Use of Laboratory Animals” prepared by the National Academy of Sciences and published by the National Institutes of Health (NIH publication no. 86-23, revised 1985). Female Sprague-Dawley rats (250-300 grams (g); Harlan Sprague-Dawley, Inc., Indianapolis, Ind.) were anesthesized with an intramuscular injection of a mixture of ketamine and xylazine and set in supine in a Kopf headholder. The right carotid artery, external and internal branches, was exposed and the distal end of the external carotid freed and retracted to line with the internal carotid. A PE-10 polyethylene tube (Becton-Dickinson, Sparks, Md.) was then introduced from the external into the internal carotid artery, and the former was ligated to hold the tube. […]
The animals were tested for rotational behavior in response to apomorphine 2 days after surgery. Apomorphine (1 mg/kg bw; Sigma Chemical Co.) was injected subcutaneously, and rotations were determined by a computer-controlled Columbus Instruments Videomex-V system (Columbus, Ohio). […] Step initiation was assessed at 2 days after ICH by independently analyzing stepping behavior in the left and right forelimbs. […] The number of steps initiated by each limb was counted during a 1-minute period.

For a further assay, the system named is caspase-3-like proteases. In words: DEVD-specific caspase activity in ICH rat brain tissue. In kind it is in vivo. An excerpt: All animals received humane care in compliance with the institute's guidelines as outlined in “Guide for the Care and Use of Laboratory Animals” prepared by the National Academy of Sciences and published by the National Institutes of Health (NIH publication no. 86-23, revised 1985). Female Sprague-Dawley rats (250-300 grams (g); Harlan Sprague-Dawley, Inc., Indianapolis, Ind.) were anesthesized with an intramuscular injection of a mixture of ketamine and xylazine and set in supine in a Kopf headholder. The right carotid artery, external and internal branches, was exposed and the distal end of the external carotid freed and retracted to line with the internal carotid. […]
Caspase activation was determined in dissected brain tissue from the ispilateral and corresponding contralateral areas. […] General caspase activity was evaluated by enzymatic cleavage of chromophore p-nitroanilide (pNA) from the substrate N-acetyl-Asp-Glu-Val-Asp-pNA (DEVD-pNA; Sigma Chemical Co.). […] The reaction mixtures were incubated at 37° C. for 1 hour, and the formation of pNA was measured at 405 nm using a 96-well plate reader. Protein concentrations were determined using the Bio-Rad protein assay kit (Bio-Rad Laboratories, Hercules, Calif.) according to the manufacturer's specifications.

Where [3] appears, read: 100 mg/kg bw TUDCA administered at 1 h.
Where [4] appears, read: 100 mg/kg bw TUDCA administered at 3 h.
Where [5] appears, read: 100 mg/kg bw TUDCA administered at 6 h.
Where [6] appears, read: 100 mg/kg bw TUDCA, time-course 1 hour before to 6 hours after collagenase.

A value given as a limit tells only on which side of the number the result lay.

`C[C@H](CCC(=O)NCCS(=O)(=O)O)[C@H]1CC[C@H]2[C@@H]3[C@@H](O)C[C@@H]4C[C@H](O)CC[C@]4(C)[C@H]3CC[C@]12C` [TUDCA, tauroursodeoxycholic acid]: the “hemorrhagic lesions larger in vehicle-injected group compared with TUDCA-treated rats” value in assay [1] (100 mg/kg bw TUDCA 1 hour before collagenase, 2 days) was “approximately 50%”. Also, the “protective effect on volume of brain lesioned” value in assay [1] (100 mg/kg bw TUDCA 1 hour before or up to 3 hours after hemorrhage, 2 days) was 40-50%; in assay [1] (100 mg/kg bw TUDCA 6 hours after collagenase infusion), “partially lost but still evident”. The “Protection (%) ICH core” value in assay [1] (setting [3]) turned out to be 47.7 ± 3.2 %; in assay [1] (setting [4]), 30.0 ± 18.9 %; in assay [1] (setting [5]), 20.9 ± 12.9%. Besides, the “Protection (%) Peri-ICH” value was found to be 48.6 ± 3.5 % in assay [1] (setting [3]), 42.8 ± 14.9 % in assay [1] (setting [4]) and 38.7 ± 12.9 % in assay [1] (setting [5]). The same compound gave a hemorrhagic lesion volume in assay [1] (100 mg/kg bw TUDCA into internal carotid artery 1 hour before collagenase, 2 days after infusion, mean±SEM) of 143.9±46.5 mm^3. Besides, in assay [1] (200 mg/kg bw TUDCA 1 hour before collagenase, 2 days), the “reduction in lesion volume” value was about 60%. The “protection of lesion volume” value in assay [1] (10 and 50 mg/kg bw dose regimens, 1 hour before collagenase) is “significantly less protective”. Further, the “number of apoptotic cells (apoptotic versus total cells)” value in assay [2] (100 mg/kg bw TUDCA 1 hour before collagenase, ipsilateral hemisphere, vehicle almost 30%) was “approximately 10%”. Moreover, the “TUNEL staining versus vehicle-injected animals” value in assay [2] (setting [6]) is given as “remained markedly lower”. Besides, the reduction of apoptosis in assay [2] (TUDCA at greater dosages (than 100 mg/kg bw), 1 hour before collagenase) was over 65%. Besides, in the assay with collagenase-induced ICH, the “rotational response to apomorphine” value is “less than 10 per 5 minutes”. Moreover, the “caspase activity versus vehicle-injected animals” value in the assay with caspase-3-like proteases (setting [6]) was “remained markedly lower”. Also, the “reduction of caspase activation in the lesioned hemisphere” value with caspase-3-like proteases (100 and 200 mg/kg bw TUDCA 1 hour before collagenase) is listed as 45-60%.
